# Laboratory results taken from patent publication US20240294551A1 (AMGEN INC., priority 2022, published 2024).
# Where two headings read alike, the source gives them in different places.
# Columns and labels:
# [1] = target: His-tagged KRAS G12D protein (Homo sapiens (Human), UniProt P01116, G12D); assay: KRAS G12D TR-FRET Assay; assay type: binding; settings: read-out: KRAS G12D Binding IC50
# Procedure, shortened: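 His-tagged KRAS G12D (diluted to 20 nM in pH 7.4 HEPES buffer with 10 mM MgCl2 and 10 μM GDP) was preincubated with titrated compound for 30 min at room temperature. Biotinylated KRPep-2d peptide (diluted to 20 nM) was then added for 1 h, and displacement was monitored by TR-FRET.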
# [2] = target: GDP-bound KRAS protein (aa 1-169), containing both G12D and C118A amino acid substitutions (Homo sapiens (Human), UniProt P01116, C118A/G12D); assay: KRAS G12D Coupled Nucleotide Exchange Assay; assay type: biochemical; settings: read-out: KRAS G12D Coupled Exchange IC50
# [3] = test system: Phosphorylation of ERK1/2 in AsPC-1 cells; assay: Phospho-ERK1/2 MSD Assay; assay type: cell-based, human; settings: read-out: 2 h p-ERK (AsPC-1 cells), IC50
# Procedure, shortened: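 Read-out: MSD electrochemiluminescent detection of phosphorylated ERK1/2 in whole-cell lysates, fitted to a 4-parameter logistic curve for IC50. Prior to lysis, AsPC-1 cells (25,000 per well) received a 2 h compound dose-response at 37 °C.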
# AsPC-1 cells = assay: AsPC-1 CTG Assay (CellTiter-Glo cell viability); assay type: cell-based, human; settings: AsPC-1, 72 h, first value of the cell, read-out: G12D/C/V Cell Proliferation CTG (72 h) AsPC-1
# Procedure, shortened: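 Human pancreatic AsPC-1 or colon SW620 cells in RPMI 1640 with 10% FBS, seeded overnight, then exposed to serially diluted compound for 72 h at 37 °C. CellTiter-Glo luminescence normalized to DMSO control; IC50 from a 4-parameter logistic model.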
# MIA PaCa-2 cells = assay: MIA PaCa-2 CTG Assay (CellTiter-Glo cell viability); assay type: cell-based, human; settings: Mia PaCa-2, 72 h, second value of the cell, read-out: G12D/C/V Cell Proliferation CTG (72 h) Mia PaCa-2
# Description: MIA PaCa-2 CTG Assay Protocol
# MIA PaCa-2 (human pancreatic carcinoma; ATCC CRL-1420) cells were cultured in RPMI 1640 medium containing 10% fetal bovine serum and 1× penicillin/streptomycin/L-glutamine. Cells were seeded in 384-well plates at a density of 1.67E+04 cells/mL and incubated at 37° C., 5% CO2, overnight. Serially-diluted compound or DMSO was added to the cells, and plates were incubated at 37° C., 5% CO2 for 72 h. Cell viability was measured using a CellTiter-Glo® Luminescent Cell Viability Assay kit (Promega) according to the manufacturer's protocol. The luminescence signal of treated samples was normalized to DMSO control, and data were analyzed using a 4-parameter logistic model to calculate IC50 values.
# Sequence of His-tagged KRAS G12D protein (P01116 other isoform, or with tags, fused parts or gaps G12D): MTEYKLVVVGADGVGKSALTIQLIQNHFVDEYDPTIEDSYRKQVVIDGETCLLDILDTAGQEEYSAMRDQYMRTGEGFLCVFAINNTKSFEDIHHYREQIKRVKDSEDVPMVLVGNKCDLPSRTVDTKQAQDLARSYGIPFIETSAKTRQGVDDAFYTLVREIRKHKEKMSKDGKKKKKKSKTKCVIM
# Sequence of GDP-bound KRAS protein (aa 1-169), containing both G12D and C118A amino acid substitutions (P01116 other isoform, or with tags, fused parts or gaps G12D/C118A): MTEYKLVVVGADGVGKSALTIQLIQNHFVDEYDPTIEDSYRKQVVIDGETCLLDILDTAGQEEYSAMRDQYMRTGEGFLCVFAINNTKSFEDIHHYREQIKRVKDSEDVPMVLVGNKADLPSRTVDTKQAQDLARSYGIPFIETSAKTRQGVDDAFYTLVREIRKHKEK
Structure (SMILES),IC50 [1],IC50 [2],"IC50 ([3]; Homo sapiens, ASPC1, 2 h)","IC50 (AsPC-1 cells; Homo sapiens, ASPC1, 72 h)",IC50 (MIA PaCa-2 cells; Homo sapiens),IC50 ([3]; 2 h),IC50 (AsPC-1 cells),IC50 (MIA PaCa-2 cells)
"Cc1cc2[nH]ncc2c2c1CCCn1ccc(n1)[C@H]1CCCN(C1)c1nc(OC[C@@]34CCCN3C[C@H](F)C4)nc3c(F)c-2ncc13 [Example 154, (18S)-31-fluoro-25-(((2R,7aS)-2-fluorotetrahydro-1H-pyrrolo[1,2-a]pyrrol-7a(5H)-yl)methoxy)-9-methyl-5,6,14,22,24,26,30,33-octaazaheptacyclo[25.3.1.1~14,17~.1~18,22~.0~2,10~.0~3,7~.0~23,28~]tritriaconta-1(31),2,4,7,9,15,17(33),23,25,27,29-undecaene]",2 nM,4 nM,252 nM,3360 nM,230 nM,,,
"O=C1OCCCc2c(Cl)cc3[nH]ncc3c2-c2ncc3c(nc(OC[C@H]4CC[C@@H]5COCCN54)nc3c2F)N2CCOC[C@H](C2)O1 [Example 185, (26S)-18-chloro-32-fluoro-4-((6R,8aR)-hexahydro-1H-pyrrolo[2,1-c][1,4]oxazin-6-ylmethoxy)-23,25,28-trioxa-1,3,5,9,14,15-hexaazahexacyclo[24.4.1.1~6,10~.0~2,7~.0~11,19~.0~12,16~]dotriaconta-2,4,6,8,10(32),11,13,16,18-nonaen-24-one]",6 nM,5 nM,12 nM,38 nM,33 nM,,,
"O=C1OCCCc2c(Cl)cc3[nH]ncc3c2-c2c(F)cc3c(nc(OC[C@@]45CCCN4C[C@H](F)C5)nc3c2F)N2CCOC[C@H](C2)O1 [Example 187, p-(26S)-18-chloro-9,32-difluoro-4-(((2R,7aS)-2-fluorotetrahydro-1H-pyrrolo[1,2-a]pyrrol-7a(5H)-yl)methoxy)-23,25,28-trioxa-1,3,5,14,15-pentaazahexacyclo[24.4.1.1~6,10~.0~2,7~.0~11,19~.0~12,16~]dotriaconta-2,4,6,8,10(32),11,13,16,18-nonaen-24-one]",4 nM,2 nM,4.6 nM,76 nM,15 nM,,,
"O=C1OCCCc2c(Cl)cc3[nH]ncc3c2-c2ccc3c(nc(OC[C@@]45CCCN4C[C@H](F)C5)nc3c2F)N2CCOC[C@H](C2)O1 [Example 189, (26S)-18-chloro-32-fluoro-4-(((2R,7aS)-2-fluorotetrahydro-1H-pyrrolo[1,2-a]pyrrol-7a(5H)-yl)methoxy)-23,25,28-trioxa-1,3,5,14,15-pentaazahexacyclo[24.4.1.1~6,10~.0~2,7~.0~11,19~.0~12,16~]dotriaconta-2,4,6,8,10(32),11,13,16,18-nonaen-24-one]",3 nM,2 nM,4.9 nM,115 nM,24 nM,,,
"CN1CCC[C@H]1COc1nc2c3cnc(c(F)c3n1)-c1c(c(Cl)cc3[nH]ncc13)CCCOC(=O)O[C@@H]1CCCCN2C1 [Example 202, (26R)-18-chloro-32-fluoro-4-(((2S)-1-methyl-2-pyrrolidinyl)methoxy)-23,25-dioxa-1,3,5,9,14,15-hexaazahexacyclo[24.4.1.1~6,10~.0~2,7~.0~11,19~.0~12,16~]dotriaconta-2,4,6,8,10(32),11,13,16,18-nonaen-24-one]",6 nM,3 nM,41.1 nM,494 nM,113 nM,,,
"O=C1OCCCc2c(F)cc3[nH]ncc3c2-c2ncc3c(nc(OC[C@@]45CCCN4C[C@H](F)C5)nc3c2F)N2CCOC[C@H](C2)O1 [Example 208, (26S)-18,32-difluoro-4-(((2R,7aS)-2-fluorotetrahydro-1H-pyrrolo[1,2-a]pyrrol-7a(5H)-yl)methoxy)-23,25,28-trioxa-1,3,5,9,14,15-hexaazahexacyclo[24.4.1.1~6,10~.0~2,7~.0~11,19~.0~12,16~]dotriaconta-2,4,6,8,10(32),11,13,16,18-nonaen-24-one]",3 nM,2 nM,20.7 nM,262 nM,38 nM,,,
O=C1OCCc2c(Cl)cc3[nH]ncc3c2-c2ncc3c(nc(OC[C@@]45CCCN4C[C@H](F)C5)nc3c2F)N2CCO[C@@H](CO1)C2 [Example 217],4 nM,2 nM,23 nM,455 nM,49 nM,,,
O=C1OCCc2c(Cl)cc3[nH]ncc3c2-c2ncc3c(nc(OC[C@@]45CCCN4C[C@H](F)C5)nc3c2F)N2CCOCC(CO1)C2 (stereo partly drawn) [Example 220],6 nM,3 nM,58.9 nM,816 nM,64 nM,,,
O=C1OCCc2c(Cl)cc3[nH]ncc3c2-c2ncc3c(nc(OC[C@@]45CCCN4C[C@H](F)C5)nc3c2F)N2CCCCC(CO1)C2 (stereo partly drawn) [Example 222],3 nM,2 nM,9.4 nM,287 nM,52 nM,,,
Fc1c2ncc3c(nc(OC[C@@]45CCCN4C[C@H](F)C5)nc13)N1CCC[C@@H](Cc3ncc(o3)CCc3c(Cl)cc4[nH]ncc4c3-2)C1 [Example 231],6 nM,4 nM,11.6 nM,29 nM,42 nM,,,

# Now from value to compound:
IC50 [1],IC50 [2],"IC50 ([3]; Homo sapiens, ASPC1, 2 h)","IC50 (AsPC-1 cells; Homo sapiens, ASPC1, 72 h)",IC50 (MIA PaCa-2 cells; Homo sapiens),IC50 ([3]; 2 h),IC50 (AsPC-1 cells),IC50 (MIA PaCa-2 cells),Structure (SMILES)
4 nM,3 nM,25.3 nM,215 nM,126 nM,,,,Fc1c2ncc3c(nc(OC[C@@]45CCCN4C[C@H](F)C5)nc13)N1CCC[C@H](C1)c1cnn(n1)CCCc1c(Cl)cc3[nH]ncc3c1-2 [Example 259]
4 nM,2 nM,33.5 nM,80 nM,121 nM,,,,"CN1CCC[C@H]1COc1nc2c3cnc(c(F)c3n1)-c1c(c(Cl)cc3[nH]ncc13)CCCOCC(=O)N1CC[C@@H]3CCN2C[C@@H]31 [Example 267, (29S,33R)-18-chloro-34-fluoro-4-(((2S)-1-methyl-2-pyrrolidinyl)methoxy)-23-oxa-1,3,5,9,14,15,26-heptaazaheptacyclo[24.5.2.1~6,10~.0~2,7~.0~11,19~.0~12,16~.0~29,33~]tetratriaconta-2,4,6(34),7,9,11,13,16,18-nonaen-25-one]"
7 nM,2 nM,,,,123 nM,606 nM,675 nM,"O=C1COCCc2c(Cl)cc3[nH]ncc3c2-c2ncc3c(nc(OC[C@@]45CCCN4C[C@H](F)C5)nc3c2F)N2CC[C@H]3CCN1[C@H]3C2 [Example 270, (28S,32R)-18-chloro-33-fluoro-4-(((2R,7aS)-2-fluorotetrahydro-1H-pyrrolo[1,2-a]pyrrol-7a(5H)-yl)methoxy)-22-oxa-1,3,5,9,14,15,25-heptaazaheptacyclo[23.5.2.1~6, 10~.0~2,7~.0~11,19~.0~12,16~.0~28,32~]tritriaconta-2,4,6,8,10(33),11,13,16,18-nonaen-24-one]"
3 nM,2 nM,11 nM,88 nM,60 nM,,,,"Cc1cc2[nH]ncc2c2c1CCCOCC(=O)N1CC[C@@H]3CCN(C[C@@H]31)c1nc(OC[C@@]34CCCN3C[C@H](F)C4)nc3c(F)c-2ncc13 [Example 277, (29S,33R)-34-fluoro-4-(((2R,7aS)-2-fluorotetrahydro-1H-pyrrolo[1,2-a]pyrrol-7a(5H)-yl)methoxy)-18-methyl-23-oxa-1,3,5,9,14,15,26-heptaazaheptacyclo[24.5.2.1~6,10~.0~2,7~.0~11,19~.0~12,16~.0~29,33~]tetratriaconta-2,4,6,8,10(34),11,13,16,18-nonaen-25-one]"
4 nM,2 nM,3.1 nM,36 nM,32 nM,,,,"C[C@@]12CCCCN(C1)c1nc(OC[C@@]34CCCN3C[C@H](F)C4)nc3c(F)c(ncc13)-c1c(c(Cl)cc3[nH]ncc13)CCCOC(=O)N2 [Example 290, (26R)-18-chloro-32-fluoro-4-(((2R,7aS)-2-fluorotetrahydro-1H-pyrrolo[1,2-a]pyrrol-7a(5H)-yl)methoxy)-26-methyl-23-oxa-1,3,5,9,14,15,25-heptaazahexacyclo[24.4.1.1~6,10~.0~2,7~.0~11,19~.0~12,16~]dotriaconta-2,4,6(32),7,9,11,13,16,18-nonaen-24-one]"
